Experimental data as given in article PMC10313662, “Structural insights into neurokinin 3 receptor activation by endogenous and analogue peptide agonists” (Cell Discovery, 2023).
Residue numbers refer to the chain shown, from its start. Blank lines part the entries; values can stand above or below the molecule they belong to. Ends that are not written are not given here.

How the values were obtained:
wild-type NK3R = biological target: T1, wild-type NK3R (Homo sapiens, UniProt P29371); test: IP-one accumulation assay, wild-type NK3R; format: cell-based
T1 construct: FLAG (DYKDDDDK); expressed in transfected cells; host or cells: HEK293T
T1 sequence (P29371 1-465): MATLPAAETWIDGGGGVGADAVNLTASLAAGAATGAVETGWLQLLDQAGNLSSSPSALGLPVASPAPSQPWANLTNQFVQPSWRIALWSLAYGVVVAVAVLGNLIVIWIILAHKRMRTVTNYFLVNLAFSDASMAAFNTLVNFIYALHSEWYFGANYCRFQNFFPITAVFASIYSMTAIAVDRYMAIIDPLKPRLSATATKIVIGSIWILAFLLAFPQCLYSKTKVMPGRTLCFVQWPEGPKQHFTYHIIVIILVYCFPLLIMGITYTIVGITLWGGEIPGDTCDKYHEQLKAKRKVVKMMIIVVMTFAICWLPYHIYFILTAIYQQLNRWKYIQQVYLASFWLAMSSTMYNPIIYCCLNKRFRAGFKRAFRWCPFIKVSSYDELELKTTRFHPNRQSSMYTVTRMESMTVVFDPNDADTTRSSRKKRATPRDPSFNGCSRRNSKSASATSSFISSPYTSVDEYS

NK1R, NK2R, NK3R = conditions: ref [21]; cited from earlier work
NK3R V235A [1] = biological target: T2, NK3R V235A (human, UniProt P29371 1-465, NK3R-V235^ECL2 to alanine)
T2 sequence (looked up): T1 sequence (P29371 1-465) with V235A

NK3R V235A [2] = biological target: T2, NK3R V235A; test: cell-based or functional assay

- Emax (wild-type NK3R): 100%
Molecule: CSCC[C@H](NC(=O)[C@H](CC(C)C)NC(=O)CNC(=O)[C@@H](NC(=O)[C@H](Cc1ccccc1)NC(=O)[C@H](Cc1ccccc1)NC(=O)[C@H](CC(=O)O)NC(=O)[C@H](Cc1c[nH]cn1)NC(=O)[C@H](CCSC)NC(=O)[C@@H](N)CC(=O)O)C(C)C)C(N)=O [NKB, neurokinin B]

- Emax (wild-type NK3R): 100%
Molecule: CSCC[C@H](NC(=O)[C@H](CC(C)C)NC(=O)CNC(=O)[C@H](Cc1ccccc1)NC(=O)[C@H](Cc1ccccc1)NC(=O)[C@H](CCC(N)=O)NC(=O)[C@H](CCC(N)=O)NC(=O)[C@@H]1CCCN1C(=O)[C@H](CCCCN)NC(=O)[C@@H]1CCCN1C(=O)[C@@H](N)CCCNC(=N)N)C(N)=O [SP, substance P]

Molecule: neurokinin A [NKA]
- Preferential receptor activation/binding, in words (NK1R, NK2R, NK3R): preferentially bind to NK1R and NK2R, respectively

- IP-one accumulation, HEK293T cells; fold decrease in receptor activation against wild-type NK3R, stimulated by senktide (NK3R V235A [1]): 64 fold
Molecule: senktide (suc-(Asp6, MePhe8) SP (6–11)) (peptide)

- IP-one accumulation, HEK293T cells; fold decrease in receptor activation against wild-type NK3R, stimulated by SP (NK3R V235A [2]): 30 fold
Molecule: RPKPQQFFGLM-NH2 (peptide, UniProt P20366 58-68, looked up) [substance P]

- IP-one accumulation, HEK293T cells; fold decrease in receptor activation against wild-type NK3R, stimulated by NKB (NK3R V235A [2]): 5.2 fold
Molecule: DMHDFFVGLM-NH2 (peptide, UniProt Q9UHF0 81-90, looked up) [neurokinin B]
